Results on eight compounds are retold here after article PMC6830296 (Journal of Enzyme Inhibition and Medicinal Chemistry, 2019).

One test has as its target T1, BpsCAβ (Burkholderia pseudomallei, UniProt Q63Y17).
T1 construct: gene BPSL0372
In kind it is biochemical. The conditions noted are these: read-out: KI (μM)^a / BpsCAβ.

The target in the next test is T2, FtuβCA (Francisella tularensis, UniProt Q5NH77).
T2 construct: gene cynT
The format is biochemical. The conditions noted are these: read-out: KI (μM)^a / FtuβCA.

Another test concerns the target T3, LdcCA (Leishmania infantum, UniProt A4HSV2).
T3 construct: gene LINJ_06_0630
T3 sequence (A4HSV2 1-306): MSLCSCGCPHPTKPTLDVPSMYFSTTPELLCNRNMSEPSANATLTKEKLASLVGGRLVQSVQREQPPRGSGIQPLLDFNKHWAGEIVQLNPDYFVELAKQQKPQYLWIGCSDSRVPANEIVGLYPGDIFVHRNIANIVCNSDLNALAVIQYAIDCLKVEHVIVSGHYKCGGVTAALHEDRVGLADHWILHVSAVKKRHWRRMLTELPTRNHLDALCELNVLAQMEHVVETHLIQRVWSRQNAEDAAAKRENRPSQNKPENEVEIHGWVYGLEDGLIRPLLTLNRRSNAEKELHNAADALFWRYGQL
The conditions noted are these: read-out: KI (μM)^a / LdcCA; CO2 hydration, TRIS pH 8.3, 20 mM Na2SO4, 1 h preincubation at room temperature.

Another test deals with T4, Can2 (Cryptococcus neoformans, UniProt Q3I4V7).
T4 construct: recombinant, obtained in-house
T4 sequence (Q3I4V7 1-239): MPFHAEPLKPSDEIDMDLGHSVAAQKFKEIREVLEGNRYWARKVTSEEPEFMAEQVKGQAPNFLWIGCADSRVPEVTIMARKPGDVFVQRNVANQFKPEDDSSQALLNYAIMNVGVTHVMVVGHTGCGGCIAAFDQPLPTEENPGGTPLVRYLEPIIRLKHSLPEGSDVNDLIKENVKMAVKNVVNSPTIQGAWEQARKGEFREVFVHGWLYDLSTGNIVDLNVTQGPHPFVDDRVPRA
The format is biochemical.

In test [1] the target is T5, VChβ (Vibrio cholerae, UniProt Q9KUD6).
T5 construct: gene VC_0586
T5 sequence (Q9KUD6 1-222): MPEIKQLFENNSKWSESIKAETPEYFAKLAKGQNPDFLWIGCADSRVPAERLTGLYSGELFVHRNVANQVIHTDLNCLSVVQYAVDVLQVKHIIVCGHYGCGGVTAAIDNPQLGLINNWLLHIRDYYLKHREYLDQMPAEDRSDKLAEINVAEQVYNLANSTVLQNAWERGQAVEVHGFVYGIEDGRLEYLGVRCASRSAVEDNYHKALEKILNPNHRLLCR
Conditions: read-out: KI (μM)^a / VChβ; CO2 hydration, TRIS pH 8.3, 20 mM Na2SO4, 1 h preincubation at room temperature.

In test [2] the target is T6, CgNce (Nakaseomyces glabratus, UniProt Q6FTL6).
T6 construct: gene NCE103
T6 sequence (Q6FTL6 entry or part of it): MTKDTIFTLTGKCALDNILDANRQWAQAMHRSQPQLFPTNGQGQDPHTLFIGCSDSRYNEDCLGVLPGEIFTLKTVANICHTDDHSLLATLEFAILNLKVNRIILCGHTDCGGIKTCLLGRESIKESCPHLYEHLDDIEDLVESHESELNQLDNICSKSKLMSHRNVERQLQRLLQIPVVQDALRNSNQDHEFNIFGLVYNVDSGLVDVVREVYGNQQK
Conditions: read-out: KI (μM)^a / CgNce; CO2 hydration, TRIS pH 8.3, 20 mM Na2SO4, 1 h preincubation at room temperature.

For test [3], the target named is T6, CgNce. Briefly: biochemical.
The target of test [4] is T5, VChβ. Briefly: biochemical.
The target in another test is T7, MgCA (Malassezia globosa, UniProt A8Q1N3).
T7 construct: gene MGL_1814
T7 sequence (A8Q1N3 1-241): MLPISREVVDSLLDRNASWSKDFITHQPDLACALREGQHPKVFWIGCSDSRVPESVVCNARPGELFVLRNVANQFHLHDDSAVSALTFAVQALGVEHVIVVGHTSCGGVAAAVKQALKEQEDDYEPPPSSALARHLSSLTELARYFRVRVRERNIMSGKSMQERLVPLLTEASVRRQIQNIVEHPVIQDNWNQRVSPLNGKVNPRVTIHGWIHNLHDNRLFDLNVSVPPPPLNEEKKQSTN
The experiment in a line: biochemical.

Like-named read-outs stand apart in the source and are kept apart here.

T2 sequence (Q5NH77 1-228): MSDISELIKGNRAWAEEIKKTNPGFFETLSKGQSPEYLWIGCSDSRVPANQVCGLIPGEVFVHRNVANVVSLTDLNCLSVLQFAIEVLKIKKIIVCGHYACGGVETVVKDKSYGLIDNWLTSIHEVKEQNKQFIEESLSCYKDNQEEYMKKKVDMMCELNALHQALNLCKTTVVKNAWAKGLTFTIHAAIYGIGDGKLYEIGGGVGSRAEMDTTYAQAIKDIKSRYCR
T1 sequence (Q63Y17 1-256): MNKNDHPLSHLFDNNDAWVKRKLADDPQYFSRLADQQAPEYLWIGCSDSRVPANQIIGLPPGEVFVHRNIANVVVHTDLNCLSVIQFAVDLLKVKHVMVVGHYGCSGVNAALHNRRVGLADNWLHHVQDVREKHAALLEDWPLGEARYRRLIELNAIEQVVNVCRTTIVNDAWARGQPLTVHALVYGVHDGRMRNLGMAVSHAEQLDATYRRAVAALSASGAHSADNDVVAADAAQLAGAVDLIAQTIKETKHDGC

As to `NP(N)(=O)c1ccccc1` [compound 2, phenylphosphonic diamide 2], the Ki at BpsCAβ came to 2.5 µM; at FtuβCA, 10.3 µM; on LdcCA, 2.1 µM; at Can2 (CO2 hydration, TRIS pH 8.3, 20 mM Na2SO4, 1 h preincubation at room temperature, read-out: KI (μM)^a / Can2) it was 0.03 µM; at VChβ [1] it was 0.9 µM; at CgNce [2] it was 0.05 µM.

For `COP(N)(=O)c1ccccc1` (centres unmarked) [compound 3, methyl phosphonamidate 3], the Ki is 0.2 µM on CgNce [3]; 2.1 µM on BpsCAβ; 8.5 µM at FtuβCA; 0.8 µM on LdcCA; 0.5 µM at VChβ [4]; 0.02 µM on Can2 (read-out: KI (μM)^a / Can2).

`CCOP(N)(=O)c1ccccc1` (centres unmarked) [compound 4, ethyl derivative 4]: the Ki at CgNce [3] came out at 0.8 µM; at BpsCAβ it was 4.6 µM; at LdcCA it was 3.5 µM; at VChβ [4], 9.5 µM; at Can2 (read-out: KI (μM)^a / Can2) it was 0.05 µM.

On to `CCCOP(N)(=O)c1ccccc1` (centres unmarked) [compound 5, propyl (5)], for which the Ki at CgNce [3] was found to be 1.3 µM; at BpsCAβ it was 12.6 µM; at FtuβCA, 35.6 µM; on LdcCA, 6.8 µM; on MgCA, 79 µM; on VChβ [4], 15.4 µM. Moreover, the Ki at Can2 (read-out: KI (μM)^a / Can2) was 0.9 µM.

`CC(C)OP(N)(=O)c1ccccc1` (centres unmarked) [compound 6, isopropyl (6)]: the Ki at CgNce [3] came out at 0.7 µM; on BpsCAβ it was 5.8 µM; at FtuβCA it was 18.4 µM; on LdcCA, 5.1 µM; at VChβ [4], 7.3 µM; on Can2 (read-out: KI (μM)^a / Can2), 0.1 µM.

As for `CCCCOP(N)(=O)c1ccccc1` (centres unmarked) [compound 7, alkyl phosphonamidate 7], the Ki on CgNce [3] worked out at 5.3 µM; on BpsCAβ, 22.5 µM; on FtuβCA, 42 µM; on VChβ [4], 26.8 µM; at Can2 (read-out: KI (μM)^a / Can2), 2.2 µM.

Take `NP(=O)(OCCCl)c1ccccc1` (centres unmarked) [compound 9, alkyl phosphonamidate 9]: the Ki is 1.8 µM on CgNce [3]; 32.7 µM at BpsCAβ; 15.1 µM on FtuβCA; 34.7 µM at VChβ [4]; 0.6 µM on Can2.

Turning to `C#CCOP(N)(=O)c1ccccc1` (centres unmarked) [compound 10, propargyl phosphonamidate 10], the Ki at CgNce [3] stood at 20.2 µM; on BpsCAβ, 18.9 µM; at FtuβCA, 6.9 µM; on LdcCA, 19.3 µM; at MgCA it was 97.4 µM; on VChβ [4], 20.9 µM. Also, at Can2 (read-out: KI (μM)^a / Can2), the Ki worked out at 5.3 µM.
